The subject of one data set is Caco2 cells. As to the kind of experiment: Ethanolamine treatment of Caco2 cells, expression analyses. In kind it is cell-based, Human. From the text: (§1) RNA isolation and gene expression analyses.
(§2) miRNA profiling and expression analyses.

The next data set relates to miR101a-3p promoter. The experiment in a line: Promoter luciferase assay in Caco-2 cells. In kind it is cell-based, Human. As for the experimental part:
Promoter luciferase assay. Caco-2 cells were seeded onto a 96-well plate at a density of 2×10^4 cells/well and transfected with miR101a-3p promoter pMK-RQ (KanR) reporter vector of 4 different nucleotide sequence (−1 to −500, −1 to −1000, −1 to −1500 and −1 to −2000) from its TSS (Transcription start site) and pMK-RQ (control vector using Lipofectamine 3000 transfection kit (Invitrogen). The TSS of miR101a-3p is located at position: chr1 65067704 (genome version hg38) as reported earlier. (Huang et al., 2017). The cells were collected at various time point (0, 1, 3, 5, 7 and 10 hrs) after transfection. The expression level of the firefly luciferase reporter gene was measured using Pierce Firefly Luciferase Glow Assay Kit.

The next data set deals with Caco-2 cell monolayers. As to the kind of experiment: Transepithelial electric resistance (TEER) assay in Caco-2 cell monolayers. In kind it is cell-based, Human. The following applies: ethanolamine treatment, up to 8 hrs. As for the experimental part:
Transepithelial electric resistance (TEER) assay in Caco-2 cell monolayers. Human intestinal epithelial Caco-2 cells (American Type Culture Collection) were seeded on apical chamber made of polyester membrane filters with 0.4 μm pore size of 12-well transwell plates (Costar) at a density of 3×10^5/well. The culture medium from both apical and basolateral compartment were changed every two days. The cells were allowed to fully differentiate for 21 days; and fully differentiated cells were challenged with FCM and metabolites for next 8 hours with continuous measuring of TEER values, using an EVOM2 Epithelial Voltometer (WPI) according to the manufacturer's instruction. The blank inert resistance value (the insert with only culture media) was subtracted from the measured resistance value of each sample and final resistance in ohm×cm2 was calculated by multiplying the sample resistance by the area of the membrane.

Another data set relates to enteroids. As to the kind of experiment: Ethanolamine treatment of enteroids, expression analyses. The class given is cell-based, mouse. Here is the method:
Enteroids development and treatments. To develop mouse enteroids, entire small intestine was collected from mice and flushed with pre-cooled Dulbecco's phosphate buffered saline (DPBS). The lengthwise cut-opened ileum was washed with cooled PBS and fragmented into 2 mm small pieces, then transferred to a 50-ml conical flask containing cleaned pre-cooled PBS. Tissue fragments were incubated in the 25 ml of pre-warmed Trypsin (Gibco) on a rocking platform for 15 minutes. After removing the trypsin, tissue pieces were washed with 10 ml pre-cold PBS with 0.1% bovine serum albumin and filtered in a 50 ml conical tube through a 70 μm cell strainer (Falcon). These pieces were then centrifuged at 290×g for 5 min at 4° C., and the intestinal crypt-containing pallets were suspended in the 10 mL cold DMEM: F-12 (Gibco) and centrifuged at 500×g for 10 minutes followed by resuspending in 150 μL IntestiCult Organoid Growth Medium (StemCell) with […] gentamicin (Gibco). The Matrigel Matrix (Corning) was added to the suspension and the mixture of 50 μL was used to form a dome at the center of a prewarmed 24-well culture plate and incubated at 37° C. and 5% CO2 for 30 minutes to allow the Matrigel to set. To maintain the cultures, the IntestiCult Organoid Growth Medium was changed three times/week, and images were captured by from day 1 to 12. […] The organoids were harvested after 2 days of treatment(s) for miRNA, mRNA, and protein analyses. Experiments were repeated three times.
as §1, §2

The next data set concerns mice gut. As to the kind of experiment: Oral administration of ethanolamine in mice. In kind it is in vivo.
Excerpt: as §1, §2

[1] abbreviates: among top 6 selected metabolites.
[2] abbreviates: oral, 100 mg/kg body weight, one dose, vs non-treated controls.

Structures are written as SMILES.

On to `NCCO` [ethanolamine], for which the “expression of inflammatory markers like IL-1, IL-6, and TNF-α” value in the data set with Caco2 cells (FIG. 12C, Caco2 culture experiments) is “significantly reduced”. In addition, in the data set with Caco2 cells (setting [1]), the “expression of Tjp1 mRNA in the Caco2 cells” value was “most dramatically reduced”. For the same molecule, in the data set on Caco2 cells (ethanolamine treatment), the “expression of miR101a-3p in Caco2 cells” value is given as “significantly increased”. Further, the “expression (Arid3a) in Caco2 cells” value in the data set on Caco2 cells (ethanolamine treatment vs controls, FIG. 5M) was “significantly increased”. The miR101a-3p promoter activity entry in the data set on miR101a-3p promoter (vector carrying −1 to 500 bp fragment) is listed as “no change”. The miR101a-3p promoter activity entry in the data set with miR101a-3p promoter (vector carrying −1 to 1500 bp fragment) was “significantly increased”. Besides, in the data set on miR101a-3p promoter (vector carrying −1 to −1000 bp fragment), the miR101a-3p promoter activity result is given as “significantly increased”. Besides, in the data set with miR101a-3p promoter (vector with −1 to −2000 bp of TSS vs empty vector), the “miR101a-3p promoter luciferase activity” value is “increased”. The “TEER in the monolayers of Caco2 cells” value in the data set with Caco-2 cell monolayers is recorded as “reduced”. Besides, the “expression of Tjp1 mRNA in the enteroids” value in the data set on enteroids (setting [1]) is given as “most dramatically reduced”. In the data set with enteroids (ethanolamine treatment), the “expression of Arid3a in the enteroids” value is recorded as “significantly increased” and the “expression of miR101a-3p in enteroids” value is on record as “significantly increased”. In the data set on mice gut (ethanolamine treatment), the “expression of miR101a-3p in the colon of mice” value is recorded as “significantly increased” and the “expression of miR101a-3p in the ileum of mice” value is “significantly increased”. Also, in the data set with mice gut (ethanolamine treatment in mice vs controls), the “expression of inflammatory markers (IL-1 β, IL-6 and TNF α) in the intestine (ileum)” value is recorded as “significantly increased”. Further, in the data set on mice gut (ethanolamine treatment vs controls, FIG. 5N), the “expression (Arid3a) in mouse intestine” value was “significantly increased”. Further, the “leaky gut (FITC-dextran assay)” value in the data set with mice gut (oral, 100 mg/kg body weight, one dose, mice) is listed as “significantly increased”. In addition, in the data set with mice gut (setting [2]), the “expression of (Tjp1) mRNA in the colon” value is on record as “significantly reduced”, the “expression of (Tjp1) mRNA in the ileum” value is “significantly reduced” and the “expression of (Tjp1) protein in the ileum” value was “significantly reduced”.
